Values of other authors as cited in US11207317B2, “Methylnaltrexone nasal formulations, methods of making, and use thereof” (AptaPharma Inc., priority 2012, dated 2021).

Test system: opioid-induced reduction in bowel motility
Settings: healthy volunteers; intravenous or oral administration

In the case of `C[N@+]1(CC2CC2)CC[C@]23c4c5ccc(O)c4O[C@H]2C(=O)CC[C@@]3(O)[C@H]1C5` [methylnaltrexone, Methylnaltrexone], the “effect on opioid-induced reduction in bowel motility” value is given as “reverse opioid-induced reduction in bowel motility”.
